Tests used:
[1] = molecular target: T1, EGFR-TK (tyrosine kinase domain of EGFR) (Homo sapiens, UniProt P00533); test: SPR (OpenSPR), immobilised EGFR-TK, […] Langmuir kinetic fit; assay type: binding
T1 construct: cloned into pCold I, expressed in E. coli Rosetta (DE3); DEAE, Resource Q and Superdex 200 purification; immobilised by amine coupling for SPR

[2] = molecular target: T1, EGFR-TK (tyrosine kinase domain of EGFR); test: ADP-Glo kinase assay, poly(Glu:Tyr) substrate; assay type: biochemical; conditions: read-out: EGFR-TK inhibition IC50

T1 sequence (P00533 696-1022 limits assumed): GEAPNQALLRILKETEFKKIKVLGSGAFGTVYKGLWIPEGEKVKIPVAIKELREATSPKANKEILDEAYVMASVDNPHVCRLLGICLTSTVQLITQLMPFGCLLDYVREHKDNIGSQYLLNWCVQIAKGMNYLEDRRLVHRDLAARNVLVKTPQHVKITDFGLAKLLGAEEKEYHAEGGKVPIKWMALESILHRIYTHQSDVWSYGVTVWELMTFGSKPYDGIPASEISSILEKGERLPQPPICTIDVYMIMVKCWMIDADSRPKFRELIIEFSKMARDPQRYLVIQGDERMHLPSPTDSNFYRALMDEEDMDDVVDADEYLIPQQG

| Structure (SMILES) | Kd [1] | IC50 [2] |
| --- | --- | --- |
| C=C(C)[C@@H]1CCC(C)=C[C@H]1c1c(O)cc(CCCCC)cc1O [CBD] | 8.35 µM | 0.0326 ± 0.00316 µM |
| CCCCCc1cc(O)c2c(c1)OC(C)(C)c1ccc(C)cc1-2 [CBN] | 32.1 µM | 0.0788 ± 0.0022 µM |
| CCCCCc1cc(O)c(C/C=C(\C)CCC=C(C)C)c(O)c1 [CBG] | 5.61 µM | 0.0299 ± 0.0021 µM |

Source: article PMC9780064, “Structural analysis of cannabinoids against EGFR-TK leads a novel target against EGFR-driven cell lines” (Current Research in Pharmacology and Drug Discovery, 2022)
